According to paper PMC7948977 (The Journal of Biological Chemistry, 2020):

How the values were obtained:
swine dUTPase = assay type: biochemical
ASFV dUTPase [1] = target: T1, ASFV dUTPase (African swine fever virus, UniProt Q65199); assay: biochemical; assay type: binding
ASFV dUTPase [2] = target: T1, ASFV dUTPase; assay type: biochemical

T1 sequence (Q65199 whole entry, looked up): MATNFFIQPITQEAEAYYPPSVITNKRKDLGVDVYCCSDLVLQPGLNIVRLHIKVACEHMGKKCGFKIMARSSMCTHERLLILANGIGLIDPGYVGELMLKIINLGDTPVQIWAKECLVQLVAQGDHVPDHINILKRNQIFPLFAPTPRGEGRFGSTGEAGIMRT

Row | Structure (SMILES) | selectivity of inhibitory activity for ASFV dUTPase over swine dUTPase (swine dUTPase) | Kd (ASFV dUTPase [1]) | mode of inhibition (ASFV dUTPase [1]) | inhibition of enzyme activity of ASFV dUTPase (ASFV dUTPase [2])
1 | O=c1ccn(CCCCNC(c2ccccc2)(c2ccccc2)c2ccccc2)c(=O)[nH]1 [compound 1] | selective for ASFV dUTPase over swine dUTPase | 15.6 µM | competitive inhibitor | dose-dependent manner
2 | O=c1ccn(CCCCOC(c2ccccc2)(c2ccccc2)c2ccccc2)c(=O)[nH]1 [compound 2] | – | cannot be calculated | – | dose-dependent manner
